Laboratory results taken from patent publication US6673802B2, “Compounds specific to adenosine A3 receptor and uses thereof” (OSI Pharmaceuticals, Inc., priority 2000, dated 2004).

Legend:
[1] = biological target: T1, human A2a receptor subtype (Homo sapiens, UniProt P29274); assay: Adenosine 2a receptor subtype competition radioligand binding ([3H]CGS-21680, HEK293 membranes); conditions: Table 13; probably % activity @ 10 μM (footnote 8)
T1 construct: purchased Receptor Biology (Beltsville, Md.) RB-HA2a

[2] = biological target: A1 adenosine receptor (Homo sapiens, UniProt P30542); conditions: cited from earlier work
Chain of A1 adenosine receptor (P30542 whole entry): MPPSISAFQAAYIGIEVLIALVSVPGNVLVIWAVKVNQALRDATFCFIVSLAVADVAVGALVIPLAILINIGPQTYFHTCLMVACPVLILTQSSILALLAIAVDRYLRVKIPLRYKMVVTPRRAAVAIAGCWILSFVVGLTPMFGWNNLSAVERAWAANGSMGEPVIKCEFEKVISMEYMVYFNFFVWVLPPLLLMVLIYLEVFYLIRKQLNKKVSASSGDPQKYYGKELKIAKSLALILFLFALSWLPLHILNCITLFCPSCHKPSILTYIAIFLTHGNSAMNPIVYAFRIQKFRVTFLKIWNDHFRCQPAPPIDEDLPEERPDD

T1 sequence (P29274 whole entry): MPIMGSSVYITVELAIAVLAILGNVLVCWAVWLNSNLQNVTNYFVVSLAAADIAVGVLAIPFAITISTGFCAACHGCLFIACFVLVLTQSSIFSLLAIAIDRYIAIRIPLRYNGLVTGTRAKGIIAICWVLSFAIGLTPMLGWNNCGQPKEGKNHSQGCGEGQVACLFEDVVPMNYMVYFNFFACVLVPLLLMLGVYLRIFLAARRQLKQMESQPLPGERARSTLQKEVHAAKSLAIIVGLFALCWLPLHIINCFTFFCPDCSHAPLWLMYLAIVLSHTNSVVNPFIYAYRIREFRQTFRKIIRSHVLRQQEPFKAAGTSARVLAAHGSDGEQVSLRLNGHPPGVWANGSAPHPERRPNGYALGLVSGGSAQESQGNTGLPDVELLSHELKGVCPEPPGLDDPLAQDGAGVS

Row | SMILES | melting point [°C] | also measured
1 | CNC(=O)NCCCNc1nc(-c2ccccc2)nc2[nH]c(C)c(C)c12 [Compound 1310] |  | A2a, value printed as % [1]: 76%
2 | c1ccc(-c2nc(NCCc3cnc[nH]3)c3cc[nH]c3n2)cc1 [Compound 1720, [2-(3H-Imidazol-4-yl)-ethyl]-(2-phenyl-7H-pyrrolo[2,3-d]pyrimidin-4-yl)-amine] | 234 to 235 | 
3 | CC(Cc1ccccc1)Nc1ncnc2c1ncn2[C@@H]1O[C@H](CO)[C@@H](O)[C@H]1O (single isomer, unassigned; (-)) [PIA, (−)-N6-(2-phenylisopropyl)-adenosine] |  | reported affinity [2]: approximately 50 nM
4 | CC(=O)NCCNc1nc(-c2ccccc2)nc2[nH]c(COc3ccccc3)cc12 [Example 17, 4-(2-acetylaminoethyl)amino-6-phenoxymethyl-2-phenyl-7H-pyrrolo[2,3d]pyrimidine] | 196 to 197 | 
